From PMC5306062, “Pharmacology and toxicology of the novel investigational agent Cantrixil (TRX-E-002-1)” (Cancer Chemotherapy and Pharmacology, 2016)
Where two headings read alike, the source gives them in different places.

Tests used:
[1] = test system: disseminated ovarian cancer model; experiment: Disseminated ovarian cancer model, intraperitoneal dosing; type: in vivo, mice
Description: In vivo, TRX-E-002-1, formulated in 20% SBECD, was active in a disseminated ovarian cancer model and a recurrent ovarian cancer model in which tumour recurrence is investigated following initial treatment of the OCSC2-inoculated mice with paclitaxel. In both models, TRX-E-002-1 inhibited tumour growth following once daily intraperitoneal administration.
The combination of TRX-E-002-1 and cisplatin was investigated in the murine model of disseminated ovarian cancer.

[2] = Second dog pharmacokinetic study, 10 mg/kg intraperitoneal, four dogs; type: in vivo, beagle dogs; settings: 10 mg/kg i.p.
Experimental: In beagle dogs, plasma concentrations of unconjugated TRX-E-002-1 at early time points (1–4 h’ post-dose) were 76–93% of the total levels (parent + glucuronide). At 8 h, the plasma concentrations of the glucuronide metabolites were similar to those of parent drug. By 24 h’ post-dose, the concentrations of TRX-E-002-1-glucuronide in plasma and gastrointestinal tissues (except colon) were 2–12 times higher than those of the parent drug. The increased levels of TRX-E-0021-glucuronide relative to those of parent drug at 24 h post-dose may reflect slower elimination of the glucuronide metabolites.

[3] = Rat GLP 28-day repeat-dose intraperitoneal toxicity study; type: in vivo, SD rats; settings: for half-life / Tmax / NOAEL at 28 days / Cmax: rat; for half-life / Tmax / Cmax: plasma, ip; for half-life: read-out: estimated plasma elimination half-life; for NOAEL at 28 days: in vivo
Experimental: TRX-E-002-1 peak plasma concentrations were observed 0.25 – 0.5 h after dosing, except for mid-dose females on Day 1 (T max = 1 h). […] Mean plasma TRX-E-002-1 concentrations were roughly proportional to dose and were generally higher in males than in females. […] AUClast values on Day 28 tended to be higher than those on Day 1, except in low-dose males and high-dose females (Table 2), indicating slight accumulation of TRX-E-002-1 with daily dosing.
No deaths were observed during the study. […] At 10 mg/kg, reduced quantity of faeces was observed during the first 1 or 2 weeks in all animals. During the recovery period, faeces were normal, although anogenital staining persisted up to 4 days after cessation of dosing in one high-dose male.
Body weight gain was reduced over Days 1–28 in high-dose males, and during the first treatment week in mid-dose males and high-dose females. Mean body weights at the end of the dosing period were 99.5, 95.7 and 89.2% of control values in males at 0.5, 3 and 10 mg/kg/day, respectively; corresponding values in females were 99.8, 97.8 and 97.8%, respectively.
Treatment-related macroscopic abnormalities at the terminal necropsy were limited to distention of the caecum and/or colon in both sexes at 10 mg/kg/day, and obstruction of the colon in 3/10 males at this dose level. No macroscopic findings were present after the recovery period. […] Thymic weight was reduced in males at 3 and 10 mg/kg/day and was increased in females at 10 mg/kg/day. Testicular and epididymal weights were still reduced in the 10 mg/kg/day group after the recovery period.
Similar changes were also seen after the 14-day recovery period (significant in males only).
In summary, the major toxicity finding in rats dosed once daily for 28 days with TRX-E-002-1 was degeneration of seminiferous tubules in the testes and of sperm in the epididymides at the high dose of 10 mg/kg/day. Other findings including transient faecal changes, reductions in weight gain and food consumption, serum biochemical changes, macroscopic lesions in the large intestine and atrophy of the salivary glands were considered non-adverse. The NOAEL was considered to be 3 mg/kg/day in male rats and 10 mg/kg/day in females. The greater sensitivity of male rats compared with females would appear to be associated with higher cumulative systemic exposure over the 28-day repeat-dose period.

LOVO = experiment: Cytotoxic activity in human cancer cell lines (72 h growth inhibition); type: cell-based; settings: Colorectal, 72 h incubation, mean ± SEM
Description: (§1) Activity in pancreatic and colorectal cancer cells and glioblastoma cells was more variable (Table 1).

A549 = experiment: as above; type: cell-based; settings: Lung, 72 h incubation
Description: as §1

Panc-1 = experiment: as above; type: cell-based; settings: Pancreatic, 72 h incubation, mean ± SEM
Description: as §1

PC3 = experiment: as above; type: cell-based; settings: PC-3, Prostate, 72 h incubation, mean ± SEM
Description: as §1

A172 = experiment: as above; type: cell-based; settings: A 172, Glioblastoma, 72 h incubation, mean ± SEM
Description: as §1

ASPC1 = experiment: as above; type: cell-based; settings: Pancreatic, 72 h incubation, mean ± SEM
Description: as §1

DU145 = experiment: as above; type: cell-based; settings: DU-145, Prostate, 72 h incubation, mean ± SEM
Description: as §1

HT-29 = experiment: as above; type: cell-based; settings: Colorectal, 72 h incubation, mean ± SEM
Description: as §1

JAM = experiment: as above; type: cell-based; settings: Ovarian, 72 h incubation, mean ± SEM
Description: as §1

OVCAR-3 = experiment: as above; type: cell-based; settings: Ovarian, 72 h incubation, mean ± SEM
Description: as §1

C4-2B = experiment: as above; type: cell-based; settings: Prostate, 72 h incubation, mean ± SEM
Description: as §1

[4] = test system: OCSC2 ovarian cancer stem cells; experiment: Western blots of caspase 2 and signalling molecules in OCSC2 cells; type: cell-based, human; settings: Western blot
Experimental: The role of caspases and intracellular signalling pathways in the anticancer activity of TRX-E-002-1 was investigated in OCSC2 ovarian cancer stem cells. […] TRX-E-002-1 also modulated phosphorylation of intracellular signalling molecules, with decreased levels of pERK (phosphorylated extracellular signal-regulated kinase) and increased levels of phosphorylated c-Jun (p–c-Jun). Activated p–c-Jun levels increased progressively over the 24-h incubation period in response to both concentrations of TRX-E-002-1 tested. […] Increased p–c-Jun and decreased pERK levels were observed following incubation of OCSC2 cells after only 2-h’ exposure, indicating these changes are one of the earliest effects of TRX-E-002-1 treatment.

## COc1cc([C@@H]2COc3c(ccc(O)c3C)[C@@H]2c2ccc(O)cc2)cc(OC)c1O [TRX-E-002-1, (+) cis-4-(para-hydroxyphenyl)-7,4′-dihydroxy-3′,5′-dimethoxy-8-methylisoflavan]
[1]; 100 mg/kg i.p. once daily in 20% SBECD for 13–14 days
  tumour growth: significantly inhibited
[1]; TRX-E-002-1 100 mg/kg once daily, cisplatin 5 mg/kg once weekly, or both
  tumour growth during the 16-day treatment period: significantly inhibited
[1]; after 16-day treatment, TRX-E-002-1 100 mg/kg once daily, cisplatin 5 mg/kg once weekly, or both
  tumour growth during the 5-week post-treatment period: decreased
[2]
  TRX-E-002-1 levels by 72 h: close to or below the limit of quantification
[2]; beagle, dog, gastrointestinal tissues, ip, 24 h after dosing, read-out: concentrations in gastrointestinal tissues relative to plasma
  Kp at 24 h: ≥ 30
[3]; 10 mg/kg/day, males and females, end of 28-day treatment
  decreases in total protein, albumin and globulin: ≤ 8%
[3]; 0.5, 3 or 10 mg/kg/day up to 28 days
  deaths: No deaths
[3]; both sexes, Sprague-Dawley, Day 1, across sexes and doses
  half-life: 42 to 84 min
[3]; both sexes, Sprague-Dawley, Day 28
  half-life: 54 to 138 min
[3]; both sexes, Sprague-Dawley, all groups except mid-dose females on Day 1, read-out: time of peak plasma concentrations
  Tmax: 15 to 30 min
[3]; female, SD
  NOAEL at 28 days: 10 mg/kg/day
[3]; female, SD, Day 1, 0.5 mg/kg, females
  Cmax: 33.4 ng/mL
[3]; female, SD, Day 1, 3 mg/kg, females
  Cmax: 150 ng/mL
[3]; female, Sprague-Dawley, 3 mg/kg, mid-dose females, Day 1, read-out: T max
  Tmax: 60 min
[3]; female, Sprague-Dawley, Day 1, 10 mg/kg, females
  Cmax: 535 ng/mL
[3]; females, 0.5 mg/kg/day
  mean body weight at end of dosing period: 99.8 % of control values
[3]; females, 3 mg/kg/day
  mean body weight at end of dosing period: 97.8 % of control values
[3]; females, 10 mg/kg/day
  mean body weight at end of dosing period: 97.8 % of control values
[3]; high-dose males
  mean body weight after the 14-day recovery period: 93.6 % of control value
[3]; male, SD
  NOAEL at 28 days: 3 mg/kg/day
[3]; male, SD, Day 1, 3 mg/kg, males
  Cmax: 181 ng/mL
[3]; male, SD, Day 1, 10 mg/kg, males
  Cmax: 780 ng/mL
[3]; male, Sprague-Dawley, Day 1, 0.5 mg/kg, males
  Cmax: 35.4 ng/mL
[3]; males, 0.5 mg/kg/day
  mean body weight at end of dosing period: 99.5 % of control values
[3]; males, 3 mg/kg/day
  mean body weight at end of dosing period: 95.7 % of control values
[3]; males, 10 mg/kg/day
  mean body weight at end of dosing period: 89.2 % of control values
LOVO
  IC50: 45 ± 5 nM
LOVO; Homo sapiens, LoVo, 72 h
  IC50: 84 nM
A549
  IC50: 58 nM
Panc-1
  IC50: 467 ± 378 nM
PC3
  IC50: 96 ± 77 nM
A172
  IC50: 51 ± 2 nM
ASPC1
  IC50: 227 ± 55 nM
DU145
  IC50: 41 ± 14 nM
HT-29
  IC50: 1760 ± 1380 nM
JAM
  IC50: 65 ± 2 nM
OVCAR-3
  IC50: 23 ± 6 nM
C4-2B
  IC50: 14 ± 9 nM
[4]; both concentrations
  levels of inactive caspase 2: decreased
[4]; progressive over 24 h
  levels of phosphorylated c-Jun (p–c-Jun): increased
[4]; seen after 2 h exposure
  levels of pERK: decreased
